Tests used:
[1] = molecular target: Glutamate [NMDA] receptor; test: Mean inhibitory constant against porcine N-methyl-D-aspartate (NMDA) glutamate receptor; n=3; assay type: protein-complex assay, Sus scrofa
[2] = molecular target: Glutamate [NMDA] receptor; test: Mean inhibitory concentration against [3H]ifenprodil binding to porcine N-methyl-D-aspartate (NMDA) glutamate receptor; n=3; assay type: protein-complex assay, Sus scrofa
[3] = molecular target: Glutamate [NMDA] receptor; test: Mean inhibitory concentration against [3H]MK-801 binding to porcine N-methyl-D-aspartate (NMDA) glutamate receptor; n=3; assay type: protein-complex assay, Sus scrofa
[4] = molecular target: Glutamate NMDA receptor; Grin1/Grin2a (Rattus norvegicus, UniProt P35439+Q00959); test: Mean inhibitory concentration against rat N-methyl-D-aspartate (NMDA) glutamate receptor 1a/2A expressed in Xenopus oocytes; assay type: cell-based, Oocyte
[5] = molecular target: Glutamate NMDA receptor; Grin1/Grin2b (Rattus norvegicus, UniProt P35439+Q00960); test: Mean inhibitory concentration against rat N-methyl-D-aspartate (NMDA) glutamate receptor 1a/2B expressed in Xenopus oocytes; assay type: cell-based, Oocyte
[6] = molecular target: Glutamate NMDA receptor; Grin1/Grin2c (Rattus norvegicus, UniProt P35439+Q00961); test: Mean inhibitory concentration against rat N-methyl-D-aspartate (NMDA) glutamate receptor 1a/2C expressed in Xenopus oocytes; assay type: cell-based, Oocyte
[7] = Mean inhibitory concentration against rat N-methyl-D-aspartate (NMDA) glutamate receptor 1a/2D expressed in Xenopus oocytes; assay type: cell-based; conditions: oocyte
[8] = molecular target: Glutamate [NMDA] receptor (Homo sapiens) (UniProt Q05586+Q12879+Q13224+O15399+O60391+Q14957+Q8TCU5); test: Specific binding of [3H]ifenprodil to N-methyl-D-aspartate (NMDA) glutamate receptor remaining in presence of 100 uM inhibitor; assay type: protein-complex assay; conditions: Sus scrofa
[9] = molecular target: Glutamate [NMDA] receptor; test: Mean inhibitory concentration against [3H]ifenprodil binding to porcine N-methyl-D-aspartate (NMDA) glutamate receptor; n=1; assay type: protein-complex assay, Sus scrofa
[10] = molecular target: Glutamate [NMDA] receptor; test: Mean inhibitory constant against porcine N-methyl-D-aspartate (NMDA) glutamate receptor; n=1; assay type: protein-complex assay, Sus scrofa

Glutamate NMDA receptor; Grin1/Grin2c, sequence (Q00961 whole entry, other chains not shown): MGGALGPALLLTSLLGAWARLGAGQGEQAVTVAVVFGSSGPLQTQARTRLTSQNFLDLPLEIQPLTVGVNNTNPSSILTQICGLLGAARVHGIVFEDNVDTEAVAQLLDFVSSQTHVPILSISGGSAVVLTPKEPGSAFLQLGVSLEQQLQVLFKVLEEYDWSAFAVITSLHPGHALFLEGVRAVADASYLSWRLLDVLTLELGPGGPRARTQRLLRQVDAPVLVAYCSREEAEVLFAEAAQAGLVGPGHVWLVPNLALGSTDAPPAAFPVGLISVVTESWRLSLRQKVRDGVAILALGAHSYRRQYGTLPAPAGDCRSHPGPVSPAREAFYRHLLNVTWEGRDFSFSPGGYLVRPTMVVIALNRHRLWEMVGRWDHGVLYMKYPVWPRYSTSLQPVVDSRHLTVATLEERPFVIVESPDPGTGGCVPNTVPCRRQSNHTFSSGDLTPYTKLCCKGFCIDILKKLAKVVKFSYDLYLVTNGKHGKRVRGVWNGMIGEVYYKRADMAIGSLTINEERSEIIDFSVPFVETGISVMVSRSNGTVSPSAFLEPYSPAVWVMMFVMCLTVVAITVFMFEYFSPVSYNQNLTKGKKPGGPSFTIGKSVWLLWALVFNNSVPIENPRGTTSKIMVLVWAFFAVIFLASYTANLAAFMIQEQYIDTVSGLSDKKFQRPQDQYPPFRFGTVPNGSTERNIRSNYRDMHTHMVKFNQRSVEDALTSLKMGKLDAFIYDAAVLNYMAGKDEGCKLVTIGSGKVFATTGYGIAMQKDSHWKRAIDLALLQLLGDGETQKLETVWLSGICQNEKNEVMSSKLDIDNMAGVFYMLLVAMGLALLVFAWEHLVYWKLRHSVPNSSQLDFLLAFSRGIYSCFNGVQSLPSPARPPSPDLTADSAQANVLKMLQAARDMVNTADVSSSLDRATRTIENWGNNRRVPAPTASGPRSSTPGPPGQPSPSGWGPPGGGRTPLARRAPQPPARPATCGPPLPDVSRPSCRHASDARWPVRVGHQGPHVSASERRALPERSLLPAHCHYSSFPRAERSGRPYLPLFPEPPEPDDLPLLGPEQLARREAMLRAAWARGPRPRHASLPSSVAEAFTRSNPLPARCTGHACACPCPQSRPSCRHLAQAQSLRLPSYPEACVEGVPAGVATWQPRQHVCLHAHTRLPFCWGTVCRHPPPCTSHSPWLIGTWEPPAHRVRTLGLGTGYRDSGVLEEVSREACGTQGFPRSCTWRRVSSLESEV
Glutamate NMDA receptor; Grin1/Grin2b, sequence (Q00960 whole entry, other chains not shown): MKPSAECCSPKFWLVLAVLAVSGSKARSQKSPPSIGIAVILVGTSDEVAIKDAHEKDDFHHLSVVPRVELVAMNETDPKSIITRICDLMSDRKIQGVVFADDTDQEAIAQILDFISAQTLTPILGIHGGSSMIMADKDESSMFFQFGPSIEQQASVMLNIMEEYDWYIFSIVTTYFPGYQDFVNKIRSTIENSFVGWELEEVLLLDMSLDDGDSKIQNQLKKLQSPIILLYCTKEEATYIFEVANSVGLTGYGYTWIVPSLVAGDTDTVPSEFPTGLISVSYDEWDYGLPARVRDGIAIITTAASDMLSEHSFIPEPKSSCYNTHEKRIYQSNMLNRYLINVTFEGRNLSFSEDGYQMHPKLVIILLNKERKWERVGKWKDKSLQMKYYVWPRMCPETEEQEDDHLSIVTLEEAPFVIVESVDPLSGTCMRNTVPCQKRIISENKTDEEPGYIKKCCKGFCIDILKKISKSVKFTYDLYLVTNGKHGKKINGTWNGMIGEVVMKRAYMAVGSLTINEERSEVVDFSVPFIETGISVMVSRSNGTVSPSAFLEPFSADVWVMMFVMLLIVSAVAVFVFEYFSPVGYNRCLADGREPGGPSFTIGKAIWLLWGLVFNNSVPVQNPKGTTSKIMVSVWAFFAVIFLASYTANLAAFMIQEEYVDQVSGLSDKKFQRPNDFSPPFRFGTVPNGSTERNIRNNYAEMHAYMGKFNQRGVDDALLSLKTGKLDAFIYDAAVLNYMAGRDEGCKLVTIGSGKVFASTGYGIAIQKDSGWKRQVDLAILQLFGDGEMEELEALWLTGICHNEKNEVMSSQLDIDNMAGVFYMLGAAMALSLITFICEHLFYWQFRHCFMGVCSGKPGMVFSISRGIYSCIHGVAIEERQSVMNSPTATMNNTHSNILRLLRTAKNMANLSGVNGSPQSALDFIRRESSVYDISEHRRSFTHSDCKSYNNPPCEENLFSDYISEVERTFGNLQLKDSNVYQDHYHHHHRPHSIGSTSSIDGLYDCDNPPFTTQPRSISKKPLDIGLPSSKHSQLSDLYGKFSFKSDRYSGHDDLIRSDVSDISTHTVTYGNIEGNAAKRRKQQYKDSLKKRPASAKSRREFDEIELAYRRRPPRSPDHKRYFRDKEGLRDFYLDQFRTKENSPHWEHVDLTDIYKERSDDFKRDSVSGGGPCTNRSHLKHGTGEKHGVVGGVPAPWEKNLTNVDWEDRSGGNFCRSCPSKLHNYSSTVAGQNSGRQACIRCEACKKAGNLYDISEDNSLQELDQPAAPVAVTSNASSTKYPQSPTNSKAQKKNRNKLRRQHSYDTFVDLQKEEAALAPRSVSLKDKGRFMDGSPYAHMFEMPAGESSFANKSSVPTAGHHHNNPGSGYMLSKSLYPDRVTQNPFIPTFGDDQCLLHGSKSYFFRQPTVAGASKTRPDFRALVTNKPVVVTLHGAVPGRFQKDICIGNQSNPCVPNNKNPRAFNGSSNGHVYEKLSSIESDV
Glutamate NMDA receptor; Grin1/Grin2a, sequence (Q00959 whole entry, other chains not shown): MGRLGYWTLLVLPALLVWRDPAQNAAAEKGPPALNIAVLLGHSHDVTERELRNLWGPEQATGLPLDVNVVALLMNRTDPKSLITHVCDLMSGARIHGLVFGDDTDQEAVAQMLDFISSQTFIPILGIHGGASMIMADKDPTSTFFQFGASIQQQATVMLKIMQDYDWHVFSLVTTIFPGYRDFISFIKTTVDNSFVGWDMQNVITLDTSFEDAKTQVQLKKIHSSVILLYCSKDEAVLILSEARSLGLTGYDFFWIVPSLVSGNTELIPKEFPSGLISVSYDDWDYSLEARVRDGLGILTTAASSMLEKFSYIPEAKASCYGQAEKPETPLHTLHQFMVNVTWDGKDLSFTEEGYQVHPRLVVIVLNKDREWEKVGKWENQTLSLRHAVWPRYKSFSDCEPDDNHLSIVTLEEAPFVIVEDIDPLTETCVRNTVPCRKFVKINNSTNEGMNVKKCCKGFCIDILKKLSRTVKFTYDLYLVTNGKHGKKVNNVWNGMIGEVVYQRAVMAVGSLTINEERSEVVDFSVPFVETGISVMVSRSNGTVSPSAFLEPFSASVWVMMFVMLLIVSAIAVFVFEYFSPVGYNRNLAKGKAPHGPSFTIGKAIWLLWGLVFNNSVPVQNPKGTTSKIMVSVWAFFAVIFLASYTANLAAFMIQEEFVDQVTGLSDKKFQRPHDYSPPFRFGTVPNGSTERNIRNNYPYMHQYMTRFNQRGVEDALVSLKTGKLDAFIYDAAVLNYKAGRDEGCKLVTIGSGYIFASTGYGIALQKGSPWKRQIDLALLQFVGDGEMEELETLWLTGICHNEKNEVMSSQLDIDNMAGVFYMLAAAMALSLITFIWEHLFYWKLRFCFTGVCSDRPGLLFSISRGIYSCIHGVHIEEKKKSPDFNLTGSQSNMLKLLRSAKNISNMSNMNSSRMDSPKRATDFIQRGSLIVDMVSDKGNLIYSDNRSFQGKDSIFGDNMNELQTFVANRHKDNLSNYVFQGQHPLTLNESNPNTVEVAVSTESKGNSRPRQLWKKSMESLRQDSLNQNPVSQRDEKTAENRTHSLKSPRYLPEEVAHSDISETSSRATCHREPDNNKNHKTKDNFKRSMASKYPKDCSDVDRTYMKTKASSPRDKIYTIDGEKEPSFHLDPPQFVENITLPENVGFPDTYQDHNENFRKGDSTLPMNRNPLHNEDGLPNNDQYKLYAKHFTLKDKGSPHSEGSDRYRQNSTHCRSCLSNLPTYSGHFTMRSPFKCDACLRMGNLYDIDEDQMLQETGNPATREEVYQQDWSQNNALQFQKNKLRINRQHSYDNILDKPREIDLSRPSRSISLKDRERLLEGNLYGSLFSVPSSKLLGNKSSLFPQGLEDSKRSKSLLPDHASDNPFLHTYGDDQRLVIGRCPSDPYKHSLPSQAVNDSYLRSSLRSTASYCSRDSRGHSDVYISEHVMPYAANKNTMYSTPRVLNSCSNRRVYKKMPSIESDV

Row | Ki [1] | IC50 [2] | IC50 [3] | IC50 [4] | IC50 [5] | IC50 [6] | IC50 [7] | Binding [8] | IC50 [9] | Ki [10] | Compound
1 | 500 nM | 0.059 µM | 0.96 µM | 137 µM | 1.32 µM | 5.29 µM | 27.5 µM |  |  |  | COc1cc2c(cc1OC)[C@H](C[C@H](O)c1ccc(Cl)cc1)N(C)CC2
2 | 60 nM |  |  |  |  |  |  | 50% |  |  | COc1ccc([C@H](O)C[C@@H]2c3cc(OC)c(OC)cc3CCN2C)cc1
3 | 2700 nM | 0.24 µM | 4.6 µM | 107 µM | 3.16 µM | 155 µM | 341 µM |  |  |  | COc1ccc([C@@H](O)C[C@H]2c3cc(OC)c(OC)cc3CCN2C)cc1
4 |  | 14 µM | 29 µM |  |  |  |  |  |  |  | COc1ccc([C@@H](O)C[C@@H]2NCCc3cc(OC)c(OC)cc32)cc1
5 | 720 nM |  | 120 µM |  |  |  |  | 63% |  |  | COc1ccc([C@H](O)C[C@H]2NCCc3cc(OC)c(OC)cc32)cc1
6 | 6700 nM | 43 µM | 40 µM |  |  |  |  |  |  |  | COc1cc2c(cc1OC)[C@@H](C[C@H](O)c1ccc(Cl)cc1)NCC2
7 | 5800 nM |  | 110 µM |  |  |  |  |  | 243 µM |  | COc1ccc([C@H](O)C[C@@H]2NCCc3cc(OC)c(OC)cc32)cc1
8 | 260 nM |  | 37 µM |  |  |  |  |  | 290 µM |  | COc1cc2c(cc1OC)[C@@H](C[C@@H](O)c1ccc(Cl)cc1)NCC2
9 | 110 nM | 24 µM | 31 µM |  |  |  |  |  |  |  | COc1cc2c(cc1OC)[C@@H](C[C@H](O)c1ccc(Cl)cc1)N(C)CC2
10 | 380 nM |  | 120 µM |  |  |  |  | 87% |  |  | COc1ccc([C@@H](O)C[C@@H]2c3cc(OC)c(OC)cc3CCN2C)cc1
11 | 920 nM | 1.1 µM | 7.4 µM | 104 µM | 10.5 µM | 24.9 µM | 48.4 µM |  |  |  | COc1cc2c(cc1OC)[C@H](C[C@H](O)c1ccc(Cl)cc1)NCC2
12 | 2600 nM | 95 µM | 34 µM |  |  |  |  |  |  |  | COc1cc2c(cc1OC)[C@H](C[C@@H](O)c1ccc(Cl)cc1)NCC2
13 | 2700 nM | 52 µM | 45 µM |  |  |  |  |  |  |  | COc1cc2c(cc1OC)[C@H](C[C@@H](O)c1ccc(Cl)cc1)N(C)CC2
14 | 11000 nM |  | 140 µM |  |  |  |  |  | 420 µM |  | COc1ccc([C@@H](O)C[C@H]2NCCc3cc(OC)c(OC)cc32)cc1
15 | 7 nM | 100 µM | 56 µM |  |  |  |  |  |  |  | COc1cc2c(cc1OC)[C@@H](C[C@@H](O)c1ccc(Cl)cc1)N(C)CC2
16 |  |  |  |  |  |  |  | 34% |  | 22 µM | COc1ccc([C@H](O)C[C@H]2c3cc(OC)c(OC)cc3CCN2C)cc1

From ChEMBL document CHEMBL1144373, “NMDA-NR2B subtype selectivity of stereoisomeric 2-(1,2,3,4-tetrahydro-1-isoquinolyl)ethanol derivatives” (Bioorg Med Chem Lett, 2005)
